Test results from patent publication US12338203B2 (TAISHO PHARMACEUTICAL CO., LTD., priority 2019, dated 2025).

Target: T1, human LPAR1 (Homo sapiens, UniProt Q92633)
T1 construct: expressed in transfected cells
Assay: Test Example 1: antagonism against response of LPA-induced increase in intracellular Ca2+ concentration in RH7777 cells stably expressing human LPAR1
Type: cell-based
Conditions: RH7777 cells stably expressing human LPAR1; Fluo-4 fluorescence, FDSS6000; read-out: IC50 value (concentration producing 50% antagonism against response of LPA-induced increase in intracellular Ca2+ concentration) (converted)
Procedure, shortened: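 RH7777 cells stably transfected with human LPAR1 were preincubated with test compound 30 min at 37 °C in HBSS/20 mM HEPES/probenecid/0.05% BSA buffer, pH 7.4, then LPA-stimulated.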

T1 sequence (Q92633 whole entry): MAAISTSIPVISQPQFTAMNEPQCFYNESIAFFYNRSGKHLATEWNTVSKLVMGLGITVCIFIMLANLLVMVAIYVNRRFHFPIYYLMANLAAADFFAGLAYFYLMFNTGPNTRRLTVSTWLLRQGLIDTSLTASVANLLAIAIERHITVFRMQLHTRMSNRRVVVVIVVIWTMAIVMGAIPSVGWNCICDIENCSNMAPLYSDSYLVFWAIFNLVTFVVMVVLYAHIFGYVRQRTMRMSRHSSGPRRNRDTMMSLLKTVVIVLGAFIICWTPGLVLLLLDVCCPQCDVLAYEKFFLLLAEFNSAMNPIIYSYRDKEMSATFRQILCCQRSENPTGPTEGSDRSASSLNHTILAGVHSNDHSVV

Row | SMILES | IC50 [nM]
1 | CCOc1cc([C@@H](C)N(CCCC(F)(F)c2ccccc2)C(=O)NC2(C(=O)O)CCOCC2)cc(OCC)c1C1(O)CC1 [Example 4-74] | 50.5
2 | CCOc1cc([C@@H](C)N(CCCCc2ccccc2)C(=O)NC2(C(=O)O)CC(O)C2)cc(OCC)c1C (stereo partly drawn) [Example 1-106] | 8.72
3 | CCOc1cc([C@@H](C)N(CCCCc2ccccc2)C(=O)NC2(C(=O)O)CCC2)cc(OCC)c1C(C)O (single isomer, unassigned) [Example 1-22] | 1.47
4 | COc1cc(C(CO)N(CCCCc2ccccc2)C(=O)NC2(C(=O)O)Cc3ccccc3C2)cc(OC)c1C (stereo not drawn) [Example 3-9] | 62.7
5 | CCOc1cc(CN(CCCCc2ccccc2)C(=O)NC2(C(=O)O)CCCC2)cc(OCC)c1C [Example 3-2] | 85.8
6 | CCOc1cc([C@@H](C)N(C(=O)NC2(C(=O)O)CC(F)(F)C2)C2CC(Cc3ccccc3)C2)cc(OCC)c1C (stereo partly drawn) [Example 4-43] | 37.2
7 | CCOc1cc([C@@H](C)N(CCCCc2ccccc2)C(=O)NC2(C(=O)O)CCN(C(C)=O)CC2)cc(OCC)c1C [Example 1-160] | 11.9
8 | CCOc1cc([C@@H](C)N(CCO[C@@H](C)c2ccccc2)C(=O)N[C@]2(C(=O)O)C[C@@H](OCC)C2)cc(OCC)c1C(C)O (stereo partly drawn) [Example 4-136] | 3.43
9 | CCOc1cc([C@@H](C)N(CCO[C@@H](C)c2ccccc2)C(=O)NC2(C(=O)O)CC(F)(F)C2)cc(OCC)c1C(C)=O [Example 4-117] | 2.52
10 | CCOc1cc([C@@H](C)N(CCCCc2ccccc2)C(=O)NC2(C(=O)O)CC(OCC)C2)cc(OCC)c1C(C)O (stereo partly drawn) [Example 1-99] | 2.58
11 | CCOc1cc([C@@H](C)N(CCCC(F)(F)c2ccccc2)C(=O)NC2(C(=O)O)CC2)cc(OCC)c1C(C)O (stereo partly drawn) [Example 4-47] | 10.5
12 | CCOc1cc(C(C)N(CCCCc2ccccc2)C(=O)NC2(C(=O)O)CC(F)(F)C2)cc(OCC)c1C1(O)CC1 (stereo not drawn) [Example 1-37] | 3.45
13 | CCOc1c(C(C)=O)ccc([C@@H](C)N(CCCC(F)(F)c2ccccc2)C(=O)N[C@]2(C(=O)O)C[C@H](OC)C2)c1C [Example 4-68] | 8.85
14 | CCOc1c(C(C)=O)ccc([C@@H](C)N(CCCC(F)(F)c2ccccc2)C(=O)NC2(C(=O)O)CCOCC2)c1C [Example 4-78] | 8.44
15 | CCOc1cc(C(C)N(CCCCc2ccccc2)C(=O)NC2(C(=O)O)CC(F)(F)C2)cc(OCC)c1C(C)=O (stereo not drawn) [Example 1-29] | 3.12
16 | CCOc1c(C(C)=O)ccc([C@@H](C)N(CCCC(F)(F)c2ccccc2)C(=O)NC2(C(C)=O)CC(OCC)C2)c1C (stereo partly drawn) [Example 4-71] | 8.06
17 | CCOc1cc([C@@H](C)N(CCCCc2ccccc2)C(=O)NC2(C(=O)O)CCOCC2)cc(OCC)c1C(C)=O [Example 1-151] | 3.57

Row | SMILES | IC50 [nM]
18 | CCOc1cc([C@@H](C)N(CCCCc2ccccc2)C(=O)N[C@]2(C(=O)O)C[C@H](OC)C2)cc(OCC)c1C(C)=O [Example 1-87, Cis-1-({[(1R)-1-(4-Acetyl-3,5-Diethoxyphenyl)Ethyl](4-Phenylbutyl) Carbamoyl}Amino)-3-Methoxycyclobutane-1-Carboxylic Acid] | 1.37
19 | CCOc1c(C(C)=O)ccc([C@@H](C)N(CCO[C@@H](C)c2ccccc2)C(=O)NC2(C(=O)O)CC(F)(F)C2)c1C [Example 4-119] | 3.13
20 | CCOc1c(C(C)=O)ccc([C@@H](C)N(CCO[C@H](C)c2ccccc2)C(=O)NC2(C(=O)O)CC(OCC)C2)c1C (stereo partly drawn) [Example 4-157] | 3.71
21 | CCOc1cc(C(C)N(CCCCc2cc(F)cc(F)c2)C(=O)NC2(C(=O)O)CC(F)(F)C2)cc(OCC)c1C (stereo not drawn) [Example 4-10] | 26.4
22 | CCOc1cc([C@@H](C)N(CCCc2ccccc2)C(=O)NC2(C(=O)O)CC(F)(F)C2)cc(OCC)c1C(C)=O [Example 4-35, 1-({[(1R)-1-(4-Acetyl-3,5-Diethoxyphenyl)Ethyl](3-Phenylpropyl) Carbamoyl}Amino)-3,3-Difluorocyclobutane-1-Carboxylic Acid] | 2.26
23 | CCOc1cc(C(CO)N(CCCCc2ccccc2)C(=O)NC2(C(=O)O)Cc3ccccc3C2)cc(OCC)c1C (stereo not drawn) [Example 3-8] | 33.5
24 | CCOc1c(C(C)O)ccc([C@@H](C)N(CCCCc2ccccc2)C(=O)NC2(C(=O)O)CC(F)(F)C2)c1C (stereo partly drawn) [Example 1-77, 1-{[{(1R)-1-[3-Ethoxy-4-(1-Hydroxyethyl)-2-Methylphenyl]Ethyl}(4-Phenylbutyl) Carbamoyl]Amino}-3,3-Difluorocyclobutane-1-Carboxylic Acid] | 3.12
25 | CCOc1cc([C@@H](C)N(CCCCc2cccc(C)c2)C(=O)NC2(C(=O)O)CC(F)(F)C2)cc(OCC)c1C [Example 4-16] | 4.05
26 | CCOc1c(C2CC2)ccc([C@@H](C)N(CCOC(C)c2ccccc2Cl)C(=O)NC2(C(=O)O)CCC2)c1C (stereo partly drawn) [Example 4-178] | 24
27 | CCOc1cc([C@@H](C)N(CCCCc2ccccc2)C(=O)NC2(C(=O)O)CC(F)(F)C2)cc(OCC)c1C(C)=O [Example 1-30, 1-({[(1R)-1-(4-Acetyl-3,5-Diethoxyphenyl)Ethyl](4-Phenylbutyl) Carbamoyl}Amino)-3,3-Difluorocyclobutane-1-Carboxylic Acid] | 1.75
28 | CCOc1cc(C(C)N(CCCc2cccc(F)c2)C(=O)NC2(C(=O)O)CC(F)(F)C2)cc(OCC)c1C (stereo not drawn) [Example 4-7] | 25.2
29 | CCOc1cc([C@@H](C)N(CCCC(F)(F)c2ccccc2)C(=O)NC2(C(=O)O)CCC2)cc(OCC)c1C(C)O (stereo partly drawn) [Example 4-52] | 2.68
30 | CCOc1c(C2CC2)ccc([C@@H](C)N(CCO[C@H](C)c2cccc(Cl)c2)C(=O)NC2(C(=O)O)CC(F)(F)C2)c1C [Example 4-181] | 3.27
31 | CCOc1cc(C(CO)N(CCCCc2ccccc2)C(=O)NC2(C(=O)O)CC(F)(F)C2)cc(OCC)c1C (stereo not drawn) [Example 3-5] | 4.88
32 | CCOc1cc([C@@H](C)N(CCC(F)(F)Cc2ccccc2)C(=O)NC2(C(=O)O)CCOCC2)cc(OCC)c1C(C)=O [Example 4-95] | 37.4
33 | CCOc1cc([C@@H](C)N(CCCCc2ccccc2)C(=O)NC2(C(=O)O)CC(OCC)C2)cc(OCC)c1C(C)=O (stereo partly drawn) [Example 1-97] | 3.94
34 | CCOc1cc(C(C)N(CCCCc2ccccc2)C(=O)NC2(C(=O)O)CC(F)(F)C2)cc(OCC)c1C(=O)C(F)(F)F (stereo not drawn) [Example 1-59] | 14.9

Other lines, results leading:

Row | IC50 [nM] | SMILES
35 | 1.51 | CCNc1cc([C@@H](C)N(CCCCc2ccccc2)C(=O)NC2(C(=O)O)CC(F)(F)C2)cc(OCC)c1C(C)=O [Example 5-108]
36 | 1.79 | CCOc1cc(C(C)N(CCO[C@@H](C)c2ccccc2)C(=O)NC2(C(=O)O)CC(OCC)C2)c(Cl)c(OCC)c1C1CC1 (stereo partly drawn) [Example 5-222]
37 | 435 | CCOc1cc(C(C)N(CCO[C@@H](C)c2ccccc2)C(=O)NC2(C(=O)OC)CC(F)(F)C2)cc(OCC)c1C(C)=O (stereo partly drawn) [Example 6-6]
38 | 0.882 | CCOc1cc(C(C)N(CCOCc2ccccc2)C(=O)NC2(C(=O)O)CC(OC)C2)cc(OCC)c1C1CC1 (stereo not drawn) [Example 5-204]
39 | 3760 | CCOc1cc(OCC)cc(C(C)N(CCCCc2ccccc2)C(=O)NC2(C(=O)OC)CCCC2)c1 (stereo not drawn) [Example 6-2, Methyl 1-({[1-(3,5-Diethoxyphenyl)Ethyl](4-Phenylbutyl) Carbamoyl}Amino)Cyclopentane-1-Carboxylate]
40 | 4.63 | CCOc1cc([C@@H](C)N(CCC(F)(F)Cc2ccccc2)C(=O)NC2(C(=O)O)CC(F)(F)C2)c(Cl)c(OCC)c1C(C)=O [Example 5-40]
41 | 52.1 | CCOc1cc(C(C)N(CCCCc2ccccc2)C(=O)NC2(P(=O)(O)O)CCCC2)cc(OCC)c1C (single isomer, unassigned) [Example 8-1, [1-({[1-(3,5-Diethoxy-4-Methylphenyl)Ethyl](4-Phenylbutyl) Carbamoyl}Amino)Cyclopentyl]Phosphonic Acid]
42 | 506 | CCOc1cc(C(C)N(CCCCc2ccccc2)C(=O)NC2(c3nc(=O)o[nH]3)CCCC2)cc(OCC)c1C (stereo not drawn) [Example 9-1, N-[1-(3,5-Diethoxy-4-Methylphenyl)Ethyl]-N′-[1-(5-Oxo-2,5-Dihydro-1,2,4-Oxadiazol-3-Yl)Cyclopentyl]-N-(4-Phenylbutyl) Urea]
43 | 99.6 | CCOc1cc(OCC)cc(C(C)N(CCCCc2ccccc2)C(=O)NC2(C(=O)O)CC(F)(F)C2)c1 (stereo not drawn) [Example 5-1, 1-({[1-(3,5-Diethoxyphenyl)Ethyl](4-Phenylbutyl) Carbamoyl}Amino)-3,3-Difluorocyclobutane-1-Carboxylic Acid]
44 | 30.7 | COc1cc(C(C)N(CCOCc2ccccc2)C(=O)NC2(C(=O)O)CCC2)c(C)c(OC)c1C (stereo not drawn) [Example 5-136]
45 | 2840 | CCOC(=O)C1(NC(=O)N(CCO[C@@H](C)c2ccccc2)C(C)c2cc(OCC)c(C(C)=O)c(OCC)c2Cl)CC1 (stereo partly drawn) [Example 6-8]
46 | 4.74 | CCOc1cc([C@@H](C)N(CCO[C@@H](C)c2ccccc2)C(=O)NC2(C(=O)O)CC2)c(C)c(OCC)c1C [Example 5-75]
47 | 2.15 | CCOc1cc(C(C)N(CCOC(C)c2ccccc2)C(=O)NC2(C(=O)O)CCC2)c(C)c(OCC)c1C (stereo not drawn) [Example 5-194]
48 | 3.38 | CCOc1cc(C(C)N(CCCCc2ccccc2)C(=O)NC2(C(=O)O)CC2)c(Cl)c(OCC)c1C(C)=O (stereo not drawn) [Example 5-44]
49 | 1010 | CCOC(=O)C1(NC(=O)N(CCO[C@@H](C)c2ccccc2)C(C)c2cc(OCC)c(C(C)=O)c(OCC)c2)CC(OCC)C1 (stereo partly drawn) [Example 6-9]
50 | 2.9 | CCOc1cc(C(C)N(CCCCc2ccccc2)C(=O)N[C@]2(C(=O)O)C[C@@H](OC)C2)c(C)c(OCC)c1C(C)=O (stereo partly drawn) [Example 5-198]
51 | 10.1 | CCOc1cc(C(C)N(CCCCc2ccccc2)C(=O)NC2(C(=O)O)CC(F)(F)C2)c2c(c1)N(CC)CC2 (stereo not drawn) [Example 5-97]
52 | 2.05 | CCOC1CC(NC(=O)N(CCOCc2ccccc2)C(C)c2cc(OC)c(C3CC3)c(OC)c2C)(C(=O)O)C1 (stereo not drawn) [Example 5-165]
53 | 3.77 | CCOc1cc([C@@H](C)N(CCCCc2ccccc2)C(=O)NC2(C(=O)O)CC(OC)C2)c(Cl)c(OCC)c1C(C)=O (stereo partly drawn) [Example 5-48]
54 | 0.809 | CCOc1cc(C(C)N(CCOCc2ccccc2)C(=O)NC2(C(=O)O)CCOCC2)c(Cl)c(OCC)c1C1CC1 (stereo not drawn) [Example 5-225]
